Experiment [1] deals with T1, Sphingosine 1-phosphate receptor 1 (Homo sapiens, UniProt P21453). The experiment can be described thus: Inhibition of human S1P1 expressed in human HeLa cells incubated for 20 mins by FLIPR assay. Format: cell-based.
The target in experiment [2] is T1, Sphingosine 1-phosphate receptor 1. The experiment can be described thus: Antagonist activity at human S1P1 transfected in CHO cells incubated for 120 mins by [gamma-35S]GTP binding assay. Format: functional, cell-based.

T1 sequence (P21453 whole entry): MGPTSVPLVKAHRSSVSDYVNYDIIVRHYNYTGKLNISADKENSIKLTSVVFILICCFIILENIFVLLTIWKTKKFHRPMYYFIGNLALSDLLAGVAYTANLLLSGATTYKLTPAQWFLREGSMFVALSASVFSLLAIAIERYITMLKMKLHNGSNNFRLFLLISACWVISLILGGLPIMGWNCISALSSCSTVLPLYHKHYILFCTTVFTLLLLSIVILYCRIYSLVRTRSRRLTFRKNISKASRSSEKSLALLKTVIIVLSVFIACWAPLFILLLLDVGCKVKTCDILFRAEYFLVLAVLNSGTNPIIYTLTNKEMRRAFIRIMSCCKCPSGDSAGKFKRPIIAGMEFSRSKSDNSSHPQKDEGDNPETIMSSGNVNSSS

For orientation: IC50 means the concentration at which inhibition is half-maximal. Lower therefore signals higher potency. With `Cc1cc(-c2cccc(NCc3ccc(Cl)c(Cl)c3)c2)ccc1C(=O)N[C@@H](C)C(=O)O`, the figures for the IC50 in experiment [1] and in experiment [2] were 170 nM and 4270 nM, respectively.

The record behind these values is ChEMBL document CHEMBL5338822, “The Role of Allylic Strain for Conformational Control in Medicinal Chemistry” (J Med Chem, 2023).
